Results from US20190002942A1, “ANTIBIOTIC FIIRV 104/18 COMPLEX AND THE ISOLATED INDIVIDUAL FACTORS THEREOF” (Fondazione Istituto Insubrico di Ricerca per la Vita, priority 2015, published 2019).
Converted amounts (≈) assume the structure as drawn. Where two headings read alike, the source gives them in different places.

Key:
[1] = system: L819 S. aureus Smith ATCC19636; assay: MIC, broth microdilution (CLSI); format: cell-based, Staphylococcus aureus
Experimental: (§1) Inocula are: 2-5×10^5 CFU/mL for Gram positive and Gram negative bacteria; 10^4 CFU/mL for Candida albicans.
(§2) The effect of 30% bovine serum is determined under the same experimental conditions.
(§3) Cultures are incubated at 35° C. in air. After 18-24 hours visual readings are performed and MICs determined. The MIC (Minimal Inhibitory Concentration) is defined as the lower concentration of antibiotic at which there is no visible growth. The strains used are clinical isolates or strains from American Type Culture Collection (ATCC).

[2] = system: L100 S. aureus ATCC 6538; assay: MIC, broth microdilution (CLSI); format: cell-based; details: Staphylococcus aureus, ATCC6538
Experimental: as §1, §2, §3

[3] = system: L1400 S. aureus MRSA; assay: MIC, broth microdilution (CLSI); format: cell-based; details: Staphylococcus aureus
Experimental: as §1, §2, §3

[4] = system: L1577 S. epidermidis; assay: MIC, broth microdilution (CLSI); format: cell-based; details: Staphylococcus epidermidis
Experimental: as §1, §2, §3

[5] = system: L1729 S. haemolyticus MDR; assay: MIC, broth microdilution (CLSI); format: cell-based; details: Staphylococcus haemolyticus
Experimental: as §1, §2, §3

[6] = system: L1730 S. haemolyticus; assay: MIC, broth microdilution (CLSI); format: cell-based; details: Staphylococcus haemolyticus
Experimental: as §1, §2, §3

[7] = system: L3030 A. baumannii; assay: MIC, broth microdilution (CLSI); format: cell-based; details: Acinetobacter baumannii; L3030 A. baumannii; read-out: MIC
Experimental: as §1, §2, §3

[8] = system: L3294 M. catarrhalis; assay: MIC, broth microdilution (CLSI); format: cell-based; details: Moraxella catarrhalis
Experimental: as §1, §2, §3

[9] = system: L44 S. pneumoniae; assay: MIC, broth microdilution (CLSI); format: cell-based; details: Streptococcus pneumoniae
Experimental: as §1, §2, §3

[10] = system: L47 E. coli, SKF 12140; assay: MIC, broth microdilution (CLSI); format: cell-based; details: Escherichia coli
Experimental: as §1, §2, §3

[11] = system: L49 S. pyogenes C203; assay: MIC, broth microdilution (CLSI); format: cell-based; details: Streptococcus pyogenes
Experimental: as §1, §2, §3

[12] = system: L559 E. faecalis; assay: MIC, broth microdilution (CLSI); format: cell-based; details: Enterococcus faecalis
Experimental: as §1, §2, §3

[13] = system: L568 E. faecium; assay: MIC, broth microdilution (CLSI); format: cell-based; details: Enterococcus faecium
Experimental: as §1, §2, §3

[14] = system: L569 E. faecium VanA; assay: MIC, broth microdilution (CLSI); format: cell-based, Enterococcus faecium
Experimental: as §1, §2, §3

[15] = system: L560 E. faecalis VanA; assay: MIC, broth microdilution (CLSI); format: cell-based, Enterococcus faecalis
Experimental: as §1, §2, §3

[16] = system: L2048 B. cenocepacia; assay: MIC, broth microdilution (CLSI); format: cell-based; details: Burkholderia cenocepacia; L2048 B. cenocepacia; read-out: MIC
Experimental: (§4) Antimicrobial activity of the antibiotic FIIRV 104/18 complex is determined by the broth microdilution method according to the procedures published by the Clinical and Laboratory Standards Institute (CLSI), formerly the National Committee for Clinical Laboratory Standards (NCCLS) (document M07-A9). Inocula are: 2-5×10^5 CFU/mL for Gram positive and Gram negative bacteria; 10^4 CFU/mL for Candida albicans.
(§5) The media used are: cation adjusted Mueller Hinton broth (CAMHB) for Staphylococci, Enterococci, Moraxella catarrhalis, Escherichia coli; Todd Hewitt broth (THB) for Streptococci; RPMI 1640 Medium for C. albicans. The effect of 30% bovine serum is determined under the same experimental conditions.
as §3, with “(ATCC). Individual factors of antibiotic FIIRV 104/18 are dissolved in DMSO to obtain a 1000 μg/mL stock solution, and subsequently diluted in water to obtain working solution.” for “(ATCC).”

[17] = system: L145 C. albicans; assay: MIC, broth microdilution (CLSI); format: cell-based, Candida albicans; details: Candida albicans; L145 C. albicans; RPMI; inoculum 10^4 CFU/mL; read-out: MIC
Experimental: as §4, §5
as §3, with “(ATCC). Individual factors of antibiotic FIIRV 104/18 are dissolved in DMSO to obtain a 1000 μg/mL stock solution, and subsequently diluted in water to obtain working solution.” for “(ATCC).”

[18] = system: Gram-positive susceptible, resistant and multi-resistant pathogenic bacteria; assay: Growth inhibition of Gram-positive bacteria (summary); format: cell-based; details: Gram positive bacteria: Staphylococci incl. MRSA and MR coagulase-negative, Streptococci, Enterococci incl. VanA
Experimental: as §4, §5
as §3, with “(ATCC). Individual factors of antibiotic FIIRV 104/18 are dissolved in DMSO to obtain a 1000 μg/mL stock solution, and subsequently diluted in water to obtain working solution.” for “(ATCC).”

[19] = system: Staphylococcus aureus Smith ATCC 19636; assay: Murine Staphylococcus aureus infection model; format: in vivo, ICR mice
Experimental: Female ICR mice (Harlan, Italy) weighing 21-24 g are infected intraperitoneally (ip) with 5×10^4 cells of Staphylococcus aureus Smith ATCC 19636 in 0.5 mL of 5% gastric mucine. Antibiotic FIIRV 104/18 factor F795 is administered intravenously (iv) within 10-15 min after infection. […] In: Statistical Methods in Biological Assay, 524-530, (1952) Charles Griffin &Co., Ltd., London].

For `COC(=O)c1c(C)cc2c(c1O)[C@]1(O)C(=O)c3cc4c(c(O)c3C(=O)[C@]1(OC)[C@H](O)C2)C(=O)C=C(N[C@H]1O[C@@H](C)[C@H](O[C@@H]2CCC(=O)[C@H](C)O2)[C@@H](O)[C@H]1OC)C4=O` [F795, (6R,6aS,14aR)-methyl 11-[(2S,3R,4R,5R,6S)-4-hydroxy-3-methoxy-6-methyl-5-{[(2S,6S)-6-methyl-5-oxotetrahydro-2H-pyran-2-yl]oxy}tetrahydro-2H-pyran-2-ylamino]-1,6,8,14a-tetrahydroxy-6a-methoxy-3-methyl-7,9,12,14-tetraoxo-5,6,6a,7,9,12,14,14a-octahydrobenzo[a]tetracene-2-carboxylate], the MIC ([1]; Staphylococcus aureus, ATCC19636, L819 S. aureus Smith ATCC19636, CAMHB, read-out: MIC) was 0.002 mg/L (≈ 0.00251 µM), the MIC ([1]; Staphylococcus aureus, ATCC19636, L819 S. aureus Smith, +30% SB (bovine serum), read-out: MIC) was 0.125 mg/L (≈ 0.157 µM) and the MIC ([2]; L100 S. aureus ATCC 6538, CAMHB, read-out: MIC) was 0.008 mg/L (≈ 0.0101 µM). The MIC ([3]; L1400 S. aureus MRSA, CAMHB, read-out: MIC) was 0.015 mg/L (≈ 0.0189 µM), the MIC ([4]; L1577 S. epidermidis, CAMHB, read-out: MIC) was 0.015 mg/L (≈ 0.0189 µM) and the MIC ([5]; L1729 S. haemolyticus MDR, CAMHB, read-out: MIC) was 0.015 mg/L (≈ 0.0189 µM). For the same molecule, the MIC ([6]; L1730 S. haemolyticus, CAMHB, read-out: MIC) was 0.015 mg/L (≈ 0.0189 µM), the MIC [7] was 16 mg/L (≈ 20.1 µM) and the MIC ([8]; L3294 M. catarrhalis, CAMHB, read-out: MIC) was 0.125 mg/L (≈ 0.157 µM). The MIC ([9]; L44 S. pneumoniae, THB, read-out: MIC) was 0.015 mg/L (≈ 0.0189 µM), the MIC ([10]; L47 E. coli, SKF 12140, CAMHB, read-out: MIC) was over 128 mg/L and the MIC ([11]; L49 S. pyogenes C203, THB, read-out: MIC) was 0.015 mg/L (≈ 0.0189 µM). It also gave an MIC ([12]; L559 E. faecalis, CAMHB, read-out: MIC) of 0.25 mg/L (≈ 0.314 µM), an MIC ([13]; L568 E. faecium, CAMHB, read-out: MIC) of 0.25 mg/L (≈ 0.314 µM) and an MIC ([14]; Enterococcus faecium, L569 E. faecium VanA, +30% SB (bovine serum), read-out: MIC) of 2 mg/L (≈ 2.51 µM). It also gave an MIC ([14]; Enterococcus faecium, L569 E. faecium VanA, CAMHB, read-out: MIC) of 0.25 mg/L (≈ 0.314 µM), an MIC ([15]; Enterococcus faecalis, L560 E. faecalis VanA, +30% SB (bovine serum), read-out: MIC) of 0.5 mg/L (≈ 0.628 µM) and an MIC ([15]; Enterococcus faecalis, L560 E. faecalis VanA, CAMHB, read-out: MIC) of 0.125 mg/L (≈ 0.157 µM). The MIC [16] was 32 mg/L (≈ 40.2 µM), the MIC [17] was over 128 mg/L and the “antibacterial activity (in words)” value [18] was “very high antibacterial activity”. The ED50 ([19]; ATCC19636, read-out: ED50 (50% effective dose), mice infected ip with S. aureus Smith ATCC 19636, iv within 10-15 min after infection, Spearman-Karber) was 0.8 mg/kg.
In the case of `CN[C@H](CC(C)C)C(=O)N[C@H]1C(=O)N[C@@H](CC(N)=O)C(=O)N[C@H]2C(=O)N[C@H]3C(=O)N[C@H](C(=O)N[C@H](C(=O)O)c4cc(O)cc(O)c4-c4cc3ccc4O)[C@H](O)c3ccc(c(Cl)c3)Oc3cc2cc(c3O[C@@H]2O[C@H](CO)[C@@H](O)[C@H](O)[C@H]2O[C@H]2C[C@](C)(N)[C@H](O)[C@H](C)O2)Oc2ccc(cc2Cl)[C@H]1O` [V, vancomycin, reference compound], the MIC ([1]; L819 S. aureus Smith, +30% SB (bovine serum)) is reported as 1 mg/L (≈ 0.69 µM), the MIC ([1]; Staphylococcus aureus, ATCC19636) is reported as 1 mg/L (≈ 0.69 µM) and the MIC [2] is reported as 1 mg/L (≈ 0.69 µM). It also gave an MIC ([3]; MRSA) of 1 mg/L (≈ 0.69 µM), an MIC [4] of 2 mg/L (≈ 1.38 µM) and an MIC [5] of 2 mg/L (≈ 1.38 µM). For the same molecule, the MIC [6] was 2 mg/L (≈ 1.38 µM), the MIC [8] was over 2 mg/L and the MIC [9] was 0.5 mg/L (≈ 0.345 µM). The MIC [10] was over 2 mg/L, the MIC [11] was 0.5 mg/L (≈ 0.345 µM) and the MIC [12] was 1 mg/L (≈ 0.69 µM). The MIC [13] was 2 mg/L (≈ 1.38 µM), the MIC ([14]; Enterococcus faecium) was over 128 mg/L and the MIC ([14]; L569 E. faecium VanA, +30% SB (bovine serum)) was over 128 mg/L. It also gave an MIC ([15]; Enterococcus faecalis) of over 128 mg/L, an MIC ([15]; L560 E. faecalis VanA, +30% SB (bovine serum)) of over 128 mg/L and an ED50 ([19]; ATCC19636, read-out: ED50 (50% effective dose)) of 0.93 mg/kg.
